Assay results reported in ChEMBL document CHEMBL1201862, “PubChem BioAssay data set” (2004).
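48-hour exposure; five concentrations; linearly interpolated endpoints. GI50 = concentration required for 50% inhibition of growth.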 Activity calls are given as the source filed them. Cut-off read from the data, not from the text of the source: active = GI50 up to about 1.1 µM and inactive = higher.

Assays:
Assay in all cases: inhibition of tumour cell growth, NCI panel, 48 h
DMS-114 = tested on: DMS-114
DMS-273 = tested on: DMS-273
M19-MEL = tested on: M19-MEL
DLD-1 = tested on: DLD-1
XF498 = tested on: XF498
KM-20L2 = tested on: KM-20L2
LXFL 529 = tested on: LXFL 529
HOP-18 = tested on: HOP-18
RXF 631 = tested on: RXF 631

## O=c1c2cccnc2ncn1CCCN1CCCCC1
DMS-114
  GI50: > 100 µM (inactive)
DMS-273
  GI50: > 100 µM (inactive)
M19-MEL
  GI50: > 100 µM (inactive)
DLD-1
  GI50: > 100 µM (inactive)
XF498
  GI50: > 100 µM (inactive)

## CC(=O)NNc1nc(C)c(C(=O)NNC(=O)C(=O)Nc2c(C)cccc2C(C)(C)C)s1
KM-20L2
  GI50: 83.4 µM (inactive)
LXFL 529
  GI50: 69.8 µM (inactive)
DMS-273
  GI50: 47.1 µM (inactive)
M19-MEL
  GI50: 48 µM (inactive)
DLD-1
  GI50: 61.8 µM (inactive)
XF498
  GI50: > 100 µM (inactive)

## CCOc1cc(/C=C/C=C/c2ccc(N(C)C)cc2)[s+]c2ccccc12
KM-20L2
  GI50: 71 µM (inactive)
HOP-18
  GI50: 99.1 µM (inactive)
DMS-114
  GI50: 5.27 µM (inactive)
RXF 631
  GI50: 33 µM (inactive)
LXFL 529
  GI50: 12.3 µM (inactive)
DMS-273
  GI50: 9.31 µM (inactive)
M19-MEL
  GI50: 26.2 µM (inactive)
DLD-1
  GI50: 23.9 µM (inactive)
XF498
  GI50: 20.8 µM (inactive)

## CC(=O)Nc1ccc(/C=C/c2ccc(NC(=O)Nc3ccc(/C=C/c4ccc(NC(C)=O)cc4S(=O)(=O)O)c(S(=O)(=O)O)c3)cc2S(=O)(=O)O)c(S(=O)(=O)O)c1
KM-20L2
  GI50: 77.8 µM (inactive)
HOP-18
  GI50: > 95.5 µM (inactive)
DMS-114
  GI50: 60.5 µM (inactive)
DMS-273
  GI50: > 87.9 µM (inactive)
M19-MEL
  GI50: > 100 µM (inactive)
DLD-1
  GI50: > 100 µM (inactive)
XF498
  GI50: > 48 µM (inactive)

## CC[C@@]1(O)C[C@H](OC2CC(N(C)C)C(OC3CC(O)C(OC4CC(O)C(O)C(C)O4)C(C)O3)C(C)O2)c2c(cc3c(c2O)C(=O)c2c(O)ccc(O)c2C3=O)[C@H]1C(=O)OC (stereo partly specified)
KM-20L2
  GI50: 0.108 µM (active)
HOP-18
  GI50: 0.136 µM (active)
DMS-114
  GI50: 0.0853 µM (active)
DMS-273
  GI50: 0.0108 µM (active)
M19-MEL
  GI50: 0.0121 µM (active)
DLD-1
  GI50: 0.0328 µM (active)
XF498
  GI50: 0.0189 µM (active)

## COc1ccc(NN=C2C(=O)CCC2=O)cc1
HOP-18
  GI50: > 100 µM (inactive)
DMS-114
  GI50: > 100 µM (inactive)
RXF 631
  GI50: > 100 µM (inactive)
DMS-273
  GI50: > 100 µM (inactive)
M19-MEL
  GI50: > 100 µM (inactive)
DLD-1
  GI50: > 100 µM (inactive)

## COC(OC)c1cc2c(cc1C=O)OCO2
KM-20L2
  GI50: > 100 µM (inactive)
DMS-114
  GI50: > 100 µM (inactive)
DMS-273
  GI50: > 100 µM (inactive)
M19-MEL
  GI50: > 100 µM (inactive)
DLD-1
  GI50: 34.9 µM (inactive)

## O=C1CCC2(c3ccc(Cl)cc3)Nc3ccccc3N12 (stereo unspecified)
KM-20L2
  GI50: > 100 µM (inactive)
HOP-18
  GI50: 50.2 µM (inactive)
DMS-114
  GI50: 45.2 µM (inactive)
RXF 631
  GI50: > 100 µM (inactive)
LXFL 529
  GI50: 47 µM (inactive)
M19-MEL
  GI50: 69 µM (inactive)
DLD-1
  GI50: 71 µM (inactive)
XF498
  GI50: 77.1 µM (inactive)

## c1ccc(-c2ccnc3c2ccc2c(-c4ccccc4)ccnc23)cc1
KM-20L2
  GI50: 3.73 µM (inactive)
HOP-18
  GI50: 2.34 µM (inactive)
DMS-114
  GI50: 0.382 µM (active)
RXF 631
  GI50: 0.604 µM (active)
LXFL 529
  GI50: 0.71 µM (active)
DMS-273
  GI50: 2.56 µM (inactive)
M19-MEL
  GI50: 1.74 µM (inactive)
DLD-1
  GI50: 2.47 µM (inactive)

## N#CCC(=O)N/N=C1/C(=O)N(c2cc(Cl)ccc2Cl)C(=O)C(=O)C1c1nc2ccccc2s1 (stereo unspecified)
KM-20L2
  GI50: > 100 µM (inactive)
HOP-18
  GI50: 72.9 µM (inactive)
DMS-114
  GI50: > 100 µM (inactive)
RXF 631
  GI50: 55.3 µM (inactive)
LXFL 529
  GI50: > 100 µM (inactive)
DMS-273
  GI50: > 100 µM (inactive)
M19-MEL
  GI50: 77.1 µM (inactive)
DLD-1
  GI50: > 100 µM (inactive)

## CC1(C)CC2(CC(C)(C)N1O)NC(=O)OC2=O
KM-20L2
  GI50: > 100 µM (inactive)
HOP-18
  GI50: > 100 µM (inactive)
DMS-114
  GI50: > 100 µM (inactive)
DMS-273
  GI50: > 100 µM (inactive)
M19-MEL
  GI50: > 100 µM (inactive)
DLD-1
  GI50: > 100 µM (inactive)
XF498
  GI50: > 100 µM (inactive)

## Cc1ccc(C2CC(c3ccc([N+](=O)[O-])cc3)=Nc3ccccc3S2)cc1 (stereo unspecified)
KM-20L2
  GI50: 34.3 µM (inactive)
HOP-18
  GI50: 48.4 µM (inactive)
DMS-114
  GI50: 16.5 µM (inactive)
RXF 631
  GI50: 24.5 µM (inactive)
LXFL 529
  GI50: 12.1 µM (inactive)
M19-MEL
  GI50: 18.6 µM (inactive)
DLD-1
  GI50: 25.5 µM (inactive)
XF498
  GI50: 19 µM (inactive)

## CC(C(=O)OCc1ccccc1)N(Cc1ccccc1)Cc1ccccc1 (stereo unspecified)
KM-20L2
  GI50: > 100 µM (inactive)
DMS-114
  GI50: 60.7 µM (inactive)
LXFL 529
  GI50: > 100 µM (inactive)
DMS-273
  GI50: 57.9 µM (inactive)
DLD-1
  GI50: > 100 µM (inactive)
XF498
  GI50: 24 µM (inactive)

## CC(=O)N(CCN)CCN
KM-20L2
  GI50: > 10 µM (inactive)
DMS-114
  GI50: > 10 µM (inactive)
RXF 631
  GI50: > 10 µM (inactive)
LXFL 529
  GI50: > 10 µM (inactive)
DMS-273
  GI50: > 10 µM (inactive)
M19-MEL
  GI50: > 10 µM (inactive)
DLD-1
  GI50: > 100 µM (inactive)
XF498
  GI50: > 100 µM (inactive)

## COc1ccc(C2C(Cl)C(=O)N2NC(=O)Cc2ccccc2)cc1OC (stereo unspecified)
KM-20L2
  GI50: > 100 µM (inactive)
HOP-18
  GI50: > 100 µM (inactive)
DMS-114
  GI50: > 100 µM (inactive)
DMS-273
  GI50: > 100 µM (inactive)
M19-MEL
  GI50: > 100 µM (inactive)
DLD-1
  GI50: > 100 µM (inactive)
XF498
  GI50: > 100 µM (inactive)

## OC(Cn1cncn1)(Cn1cncn1)c1ccc(Cl)cc1Cl
KM-20L2
  GI50: > 100 µM (inactive)
HOP-18
  GI50: > 100 µM (inactive)
DMS-114
  GI50: > 100 µM (inactive)
LXFL 529
  GI50: > 100 µM (inactive)
DMS-273
  GI50: > 100 µM (inactive)
M19-MEL
  GI50: > 100 µM (inactive)
DLD-1
  GI50: > 100 µM (inactive)

## COC(=O)C1=CC(=O)[C@@H]2CCCC[C@H]12
KM-20L2
  GI50: > 100 µM (inactive)
HOP-18
  GI50: > 100 µM (inactive)
DMS-114
  GI50: > 100 µM (inactive)
RXF 631
  GI50: > 100 µM (inactive)
LXFL 529
  GI50: > 100 µM (inactive)
DMS-273
  GI50: > 100 µM (inactive)
M19-MEL
  GI50: > 100 µM (inactive)
DLD-1
  GI50: > 100 µM (inactive)

## CCCCCCCCCCCCC(=O)CCCCC(=O)O
HOP-18
  GI50: 16 µM (inactive)
DMS-114
  GI50: 18.8 µM (inactive)
RXF 631
  GI50: 18.7 µM (inactive)
LXFL 529
  GI50: 18 µM (inactive)
DMS-273
  GI50: 33.4 µM (inactive)
M19-MEL
  GI50: 18.2 µM (inactive)
DLD-1
  GI50: 17.9 µM (inactive)

## COc1cc2c3c(c1OC)Oc1ccc(cc1)CC1c4c(cc(OC)c(OC)c4Oc4ccc(cc4)CC3N(C)CC2)CCN1C (stereo unspecified)
KM-20L2
  GI50: 19.8 µM (inactive)
HOP-18
  GI50: 25.9 µM (inactive)
DMS-114
  GI50: 19.8 µM (inactive)
LXFL 529
  GI50: 20.6 µM (inactive)
DMS-273
  GI50: 15.3 µM (inactive)
M19-MEL
  GI50: 17.3 µM (inactive)
DLD-1
  GI50: 29.2 µM (inactive)

## O=C1C(=O)N(c2ccc(Cl)c(Cl)c2)C(=O)C(=O)C1c1nc2ccccc2o1
KM-20L2
  GI50: > 100 µM (inactive)
RXF 631
  GI50: 43.5 µM (inactive)
LXFL 529
  GI50: 93.8 µM (inactive)
DMS-273
  GI50: 70.3 µM (inactive)
M19-MEL
  GI50: 58.7 µM (inactive)
DLD-1
  GI50: 59.2 µM (inactive)
XF498
  GI50: 51.5 µM (inactive)

## Cc1nc2c(=O)[nH]c(=O)n(C)c2[nH]c1=O.c1ccncc1
KM-20L2
  GI50: > 100 µM (inactive)
LXFL 529
  GI50: > 100 µM (inactive)
DMS-273
  GI50: > 100 µM (inactive)
M19-MEL
  GI50: > 100 µM (inactive)
DLD-1
  GI50: > 100 µM (inactive)

## Cc1ccc(C(=O)Nc2ncn(C3CC(O)C(CO)O3)c(=O)n2)cc1 (stereo unspecified)
HOP-18
  GI50: > 68.2 µM (inactive)
DMS-114
  GI50: > 100 µM (inactive)
DMS-273
  GI50: > 100 µM (inactive)
M19-MEL
  GI50: > 100 µM (inactive)
DLD-1
  GI50: > 100 µM (inactive)
XF498
  GI50: > 100 µM (inactive)

## CCC(C)n1c(C)nc2c1C(=O)c1ccccc1C2=O (stereo unspecified)
KM-20L2
  GI50: 43.7 µM (inactive)
LXFL 529
  GI50: 33.4 µM (inactive)
DMS-273
  GI50: 34.2 µM (inactive)
M19-MEL
  GI50: 18.2 µM (inactive)
DLD-1
  GI50: 27.2 µM (inactive)
XF498
  GI50: 44.8 µM (inactive)

## C/C(CCN(C)C)=N\OC(=O)c1ccccc1
KM-20L2
  GI50: > 100 µM (inactive)
HOP-18
  GI50: 1.66 µM (inactive)
DMS-114
  GI50: > 100 µM (inactive)
LXFL 529
  GI50: > 100 µM (inactive)
DMS-273
  GI50: > 100 µM (inactive)
M19-MEL
  GI50: > 100 µM (inactive)
DLD-1
  GI50: > 100 µM (inactive)

## CNS(=O)(=O)NN(C)S(=O)(=O)c1ccc(Cl)cc1
KM-20L2
  GI50: > 100 µM (inactive)
DMS-114
  GI50: > 100 µM (inactive)
RXF 631
  GI50: > 100 µM (inactive)
LXFL 529
  GI50: > 100 µM (inactive)
DMS-273
  GI50: > 100 µM (inactive)
M19-MEL
  GI50: > 100 µM (inactive)
DLD-1
  GI50: > 100 µM (inactive)
XF498
  GI50: > 100 µM (inactive)

## COc1cc2c(cc1OC)[C@@H](C(O)c1ccccc1)NCC2 (stereo partly specified)
KM-20L2
  GI50: > 100 µM (inactive)
DMS-114
  GI50: > 100 µM (inactive)
RXF 631
  GI50: > 100 µM (inactive)
LXFL 529
  GI50: > 100 µM (inactive)
DMS-273
  GI50: > 100 µM (inactive)
M19-MEL
  GI50: > 100 µM (inactive)
DLD-1
  GI50: > 100 µM (inactive)
XF498
  GI50: > 100 µM (inactive)

## COc1cccc(C2SCc3nc4ccccc4n32)c1 (stereo unspecified)
HOP-18
  GI50: > 100 µM (inactive)
DMS-114
  GI50: 21.3 µM (inactive)
DMS-273
  GI50: 39.1 µM (inactive)
M19-MEL
  GI50: 46.6 µM (inactive)
DLD-1
  GI50: 88.1 µM (inactive)
